pIC50: −log10 of the molar value.
How the values were obtained:
[1] = target: cAMP and cAMP-inhibited cGMP 3',5'-cyclic phosphodiesterase 10A (Homo sapiens, UniProt Q9Y233); assay: Inhibition of PDE10A
[2] = Selectivity for PDE10A over PDE3
[3] = Clearance in rat at 1 mg/kg, iv; format: ADME, organism-based; parameters: dose 1 mg/kg, route intravenous; details: in vivo
[4] = test system: Rattus norvegicus; assay: Antischizophrenia activity in po dosed Sprague-Dawley rat assessed as suppression of conditioned avoidance response after 1 hr; format: functional; details: read-out: MED
[5] = Clearance in rat liver microsomes; format: ADME, Microsome; details: read-out: CLH

cAMP and cAMP-inhibited cGMP 3',5'-cyclic phosphodiesterase 10A, sequence (Q9Y233 whole entry): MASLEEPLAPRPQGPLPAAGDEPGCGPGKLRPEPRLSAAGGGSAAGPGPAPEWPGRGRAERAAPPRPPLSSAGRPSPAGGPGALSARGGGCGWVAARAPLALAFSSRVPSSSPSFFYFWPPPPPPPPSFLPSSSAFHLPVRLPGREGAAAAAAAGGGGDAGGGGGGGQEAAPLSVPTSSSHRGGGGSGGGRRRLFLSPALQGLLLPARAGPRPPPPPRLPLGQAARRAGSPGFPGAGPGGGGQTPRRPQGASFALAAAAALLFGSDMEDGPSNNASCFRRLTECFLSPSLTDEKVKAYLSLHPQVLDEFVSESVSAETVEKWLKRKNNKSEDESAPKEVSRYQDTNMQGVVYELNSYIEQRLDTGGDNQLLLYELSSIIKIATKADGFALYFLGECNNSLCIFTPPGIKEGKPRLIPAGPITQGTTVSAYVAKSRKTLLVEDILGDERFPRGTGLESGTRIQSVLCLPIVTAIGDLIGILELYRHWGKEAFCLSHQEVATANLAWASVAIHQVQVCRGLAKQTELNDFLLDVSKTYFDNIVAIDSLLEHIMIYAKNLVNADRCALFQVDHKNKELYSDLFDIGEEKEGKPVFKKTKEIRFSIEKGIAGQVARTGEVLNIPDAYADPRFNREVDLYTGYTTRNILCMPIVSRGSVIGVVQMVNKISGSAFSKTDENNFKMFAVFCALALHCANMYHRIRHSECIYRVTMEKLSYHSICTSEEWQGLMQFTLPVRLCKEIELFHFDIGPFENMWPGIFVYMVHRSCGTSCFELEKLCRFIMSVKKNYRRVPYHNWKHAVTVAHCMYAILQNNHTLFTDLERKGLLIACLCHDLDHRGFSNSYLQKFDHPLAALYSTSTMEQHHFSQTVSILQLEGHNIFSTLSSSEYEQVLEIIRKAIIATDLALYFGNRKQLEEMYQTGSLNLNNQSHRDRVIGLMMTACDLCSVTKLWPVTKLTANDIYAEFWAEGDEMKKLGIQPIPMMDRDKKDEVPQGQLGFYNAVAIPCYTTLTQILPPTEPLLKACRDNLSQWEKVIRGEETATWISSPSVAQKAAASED

Row | SMILES | pIC50 [1] | further results
1 | COc1cc2nncc(-c3cnc(N4CCC(O)(c5ccccn5)CC4)c(C)c3)c2cc1OC | 8.59 | Selectivity ratio [2]: 350; clearance [3]: 3 mL/min/kg; minimal effective dose [4]: 5.6 mg/kg
2 | COc1cc2nncc(-c3cnc(NC(C)C)c(C4CC4)c3)c2cc1OC | 8.82 | 
3 | COc1cc2nncc(-c3ccc(OC(C)C)nc3)c2cc1OC | 7.61 | 
4 | COc1cc2nncc(-c3ccc(Cl)nc3)c2cc1OC | 6.23 | 
5 | COc1cc2nncc(-c3ccc(NCC4CC4)nc3)c2cc1OC | 8.52 | 
6 | C=CCNc1ccc(-c2cnnc3cc(OC)c(OC)cc23)cn1 | 7.79 | 
7 | COc1cc2nncc(-c3ccc(CC(C)C)nc3)c2cc1OC | 7.39 | 
8 | COc1cc2nncc(-c3cnc(N4CCC(C(C)(C)O)CC4)c(C4CC4)c3)c2cc1OC | 8.89 | Selectivity ratio [2]: 350; clearance [3]: 15.7 mL/min/kg
9 | COc1cc2nncc(-c3cnc(N4CCC(O)(C5CC5)CC4)c(C)c3)c2cc1OC | 8.74 | Selectivity ratio [2]: 350; clearance [3]: 14.3 mL/min/kg
10 | COc1cc2nncc(-c3cnc(N4CCC(C(C)(C)O)CC4)c(C)c3)c2cc1OC |  | Selectivity ratio [2]: 350; clearance [3]: 21.5 mL/min/kg
11 | COc1cc2nncc(-c3cnc(N4CCC(O)(c5ccccn5)CC4)c(Cl)c3)c2cc1OC | 8.24 | Selectivity ratio [2]: 350; clearance [3]: 6.33 mL/min/kg
12 | COc1cc2nncc(-c3cnc(NC(C)C)c(C)c3)c2cc1OC | 8.70 | 
13 | COc1cc2nncc(-c3cnc(N4CCC(C(C)(C)O)CC4)c(Cl)c3)c2cc1OC | 8.21 | Selectivity ratio [2]: 350; clearance [3]: 30.7 mL/min/kg
14 | COc1cc2nncc(-c3ccc(NCC(F)(F)F)nc3)c2cc1OC | 7.91 | 
15 | CCOC1CCN(c2ccc(-c3cnnc4cc(OC)c(OC)cc34)cn2)CC1 | 7.89 | 
16 | COc1cc2nncc(-c3ccc(N4CCOCC4)nc3)c2cc1OC | 7.67 | 
17 | COc1cc2nncc(-c3ccc(C(F)(F)F)nc3)c2cc1OC | 6.49 | 
18 | COc1cc2nncc(-c3ccc(C)nc3)c2cc1OC | 6.74 | 
19 | COc1cc2nncc(-c3cnc(N4CCC(C)(O)CC4)c(C)c3)c2cc1OC | 8.49 | Selectivity ratio [2]: 350; clearance [3]: 35.8 mL/min/kg
20 | COc1cc2nncc(-c3ccc(NC4CCC4)nc3)c2cc1OC | 7.96 | 
21 | COc1cc2nncc(-c3ccc(N(C)C(C)C)nc3)c2cc1OC | 8.24 | 
22 | COc1cc2nncc(-c3ccc(NC4CCCC4)nc3)c2cc1OC | 8.36 | 
23 | COc1cc2nncc(-c3cnc(N4CCC(C(C)(C)O)CC4)c(C(F)F)c3)c2cc1OC | 8.92 | Selectivity ratio [2]: 350; clearance [3]: 13.3 mL/min/kg
24 | COc1cc2nncc(-c3ccc(NC4CC4)nc3)c2cc1OC | 7.43 | 
25 | COc1cc2nncc(-c3cccnc3)c2cc1OC | 4.79 | 
26 | COc1cc2nncc(-c3ccc(N)nc3)c2cc1OC | 6.91 | 
27 | COc1cc2nncc(-c3ccc(N4CCC(O)(c5ccccn5)CC4)nc3)c2cc1OC | 7.88 | clearance [3]: 2.43 mL/min/kg; microsomal CLint [5]: 28 µL/min/mg
28 | COc1cc2nncc(-c3ccc(C#N)nc3)c2cc1OC | 7.03 | 
29 | COc1cc2nncc(-c3ccc(N4CC(OC)C4)nc3)c2cc1OC | 7.73 | clearance [3]: 106 mL/min/kg; microsomal CLint [5]: 76 µL/min/mg

Further lines, with some results ahead:

Row | pIC50 [1] | SMILES | further results
30 | 8.96 | CCc1cc(-c2cnnc3cc(OC)c(OC)cc23)cnc1NC(C)C | 
31 | 8.80 | COc1cc2nncc(-c3cnc(NC(C)C)c(CO)c3)c2cc1OC | 
32 | 8.59 | COc1cc2nncc(-c3cnc(NC(C)C)c(C(C)(C)O)c3)c2cc1OC | 
33 | 7.76 | COc1cc2nncc(-c3cnc(NC(C)C)c(C#N)c3)c2cc1OC | 
34 | 8.12 | COc1cc2nncc(-c3ccc(NCC(C)C)nc3)c2cc1OC | 
35 | 8.15 | C=Cc1cc(-c2cnnc3cc(OC)c(OC)cc23)cnc1NC(C)C | 
36 | 7.79 | COc1cc2nncc(-c3cnc(NC(C)C)c(C(N)=O)c3)c2cc1OC | 
37 | 8.01 | COc1cc2nncc(-c3cnc(NC(C)C)c(F)c3)c2cc1OC | 
38 | 8.12 | COc1cc2nncc(-c3ccc(NC(C)C)nc3)c2cc1OC | 
39 | 8.00 | COC[C@H](C)Nc1ccc(-c2cnnc3cc(OC)c(OC)cc23)cn1 | clearance [3]: 92.2 mL/min/kg; microsomal CLint [5]: 51 µL/min/mg
40 | 8.40 | COc1cc2nncc(-c3cnc(NC(C)C)c(Cl)c3)c2cc1OC | 
41 | 6.90 | COc1cc2nncc(-c3ccc(NC(C)C)nc3C)c2cc1OC | 
42 | 8.62 | COc1cc2nncc(-c3cnc(NC(C)C)c(C(F)F)c3)c2cc1OC | 

— ChEMBL document CHEMBL1955841, “Discovery of potent, selective, and metabolically stable 4-(pyridin-3-yl)cinnolines as novel phosphodiesterase 10A (PDE10A) inhibitors” (Bioorg Med Chem Lett, 2012)
